According to the CheMixHub viscosity set:
“And” between values parts separate entries of the source, which are not always exact repeats. Identical values can stand only once.

Experiment: xn = mol fraction of the nth substance listed

ClCCl + CC(C)O
298.15 K, 101 kPa
Details | viscosity [mPa·s]
x2 = 0.05 | 0.425
x2 = 0.0992 | 0.435
x2 = 0.1 | 0.433
x2 = 0.15 | 0.444
x2 = 0.2 | 0.458
x2 = 0.2021 | 0.457
x2 = 0.25 | 0.474
x2 = 0.299 | 0.491
x2 = 0.3 | 0.494
x2 = 0.35 | 0.518
x2 = 0.3974 | 0.548
x2 = 0.4 | 0.547
x2 = 0.45 | 0.583
x2 = 0.5 | 0.626
x2 = 0.55 | 0.679
x2 = 0.552 | 0.68
x2 = 0.5957 | 0.74
x2 = 0.6 | 0.744
x2 = 0.65 | 0.823
x2 = 0.6514 | 0.825
x2 = 0.7 | 0.917
x2 = 0.75 | 1.031
x2 = 0.8 | 1.167
x2 = 0.8003 | 1.16
x2 = 0.85 | 1.327
x2 = 0.8515 | 1.321
x2 = 0.897 | 1.515
x2 = 0.9 | 1.516
x2 = 0.924 | 1.619
x2 = 0.9482 | 1.742
x2 = 0.95 | 1.738
x2 = 0.975 | 1.912

O=S(=O)(O)O + COc1ccccc1
viscosity [mPa·s], 101 kPa
Details | x1 = 0.0892 | x1 = 0.2274 | x1 = 0.5064 | x1 = 0.6238 | x1 = 0.6321 | x1 = 0.6494 | x1 = 0.679 | x1 = 0.7207 | x1 = 0.746 | x1 = 0.9241
293.15 K | 1.46 | 3.17 | 41.69 | 260.3 | 172.8 | 263.5 | 317.9 | 262.1 | 201.3 | 34.68
303.15 K | 1.35 | 1.79 | 30.05 | 166 | 100.8 | 141.3 | 182 | 151.4 | 131.3 | 22.53
313.15 K | 1.25 | 2 | 23.8 | 87.9 | 70.2 | 79.44 | 105 | 83.3 | 71.9 | 16.6
323.15 K | 1.15 | 2.58 | 17.8 | 72.9 | 42.1 | 47.4 | 83.18 | 50.18 | 44.8 | 11.9

ClCCl + COC(C)=O
298.15 K, 101 kPa
Details | viscosity [mPa·s]
x1 = 0.1033 | 0.374
x1 = 0.1903 | 0.383
x1 = 0.2995 | 0.391
x1 = 0.4016 | 0.398
x1 = 0.5007 | 0.404
x1 = 0.5991 | 0.41
x1 = 0.7017 | 0.414
x1 = 0.8034 | 0.416
x1 = 0.9104 | 0.418

O=P([O-])(O)O.[K+] + O
viscosity [mPa·s], 101 kPa
Details | x1 = 0.0018 | x1 = 0.0054 | x1 = 0.0089 | x1 = 0.012 | x1 = 0.016
298.15 K | 0.9211 | 0.9772 | 1.037 | 1.11 | 1.186
303.15 K | 0.8252 | 0.8757 | 0.9339 | 0.9884 | 1.062
308.15 K | 0.7468 | 0.7881 | 0.837 | 0.8844 | 0.9335

CC(=O)O + Cc1ccc(C)cc1
viscosity, 101 kPa
Details | x2 = 0.0592 | x2 = 0.124 | x2 = 0.1952 | x2 = 0.2738 | x2 = 0.3615 | x2 = 0.4596 | x2 = 0.569 | x2 = 0.6934 | x2 = 0.8354
303.15 K | 0.8817 mPa·s and 0.882 mPa·s | 0.7951 mPa·s and 0.795 mPa·s | 0.7314 mPa·s and 0.731 mPa·s | 0.6755 mPa·s and 0.676 mPa·s | 0.6446 mPa·s and 0.645 mPa·s | 0.6109 mPa·s and 0.611 mPa·s | 0.5923 mPa·s and 0.592 mPa·s | 0.58 mPa·s and 0.58 mPa·s | 0.571 mPa·s and 0.571 mPa·s
308.15 K | 0.8236 mPa·s | 0.7455 mPa·s | 0.685 mPa·s | 0.6373 mPa·s | 0.6095 mPa·s | 0.5737 mPa·s | 0.5606 mPa·s | 0.5476 mPa·s | 0.5393 mPa·s
313.15 K | 0.7876 mPa·s | 0.7172 mPa·s | 0.6617 mPa·s | 0.6171 mPa·s | 0.5816 mPa·s | 0.5522 mPa·s | – | 0.5233 mPa·s | –
318.15 K | 0.7347 mPa·s | 0.6716 mPa·s | 0.6249 mPa·s | 0.5798 mPa·s | 0.5483 mPa·s | 0.5222 mPa·s | 0.5018 mPa·s | 0.4927 mPa·s | 0.4862 mPa·s
323.15 K | 0.6874 mPa·s and 0.687 mPa·s | 0.6339 mPa·s and 0.634 mPa·s | 0.5878 mPa·s and 0.588 mPa·s | 0.5468 mPa·s and 0.547 mPa·s | 0.5158 mPa·s and 0.516 mPa·s | 0.4913 mPa·s and 0.491 mPa·s | 0.4775 mPa·s and 0.478 mPa·s | 0.4674 mPa·s and 0.467 mPa·s | 0.4608 mPa·s and 0.461 mPa·s

CCNc1ccccc1 + Clc1ccccc1
viscosity [mPa·s], 101 kPa
Details | 303.15 K | 308.15 K
x1 = 0.0629 | 0.767 | 0.72
x1 = 0.1159 | 0.816 | 0.758
x1 = 0.1959 | 0.894 | 0.823
x1 = 0.2558 | 0.954 | 0.873
x1 = 0.3298 | 1.028 | 0.937
x1 = 0.3968 | 1.096 | 0.995
x1 = 0.4856 | 1.188 | 1.073
x1 = 0.5625 | 1.267 | 1.141
x1 = 0.6359 | 1.342 | 1.206
x1 = 0.7025 | 1.412 | 1.266
x1 = 0.7839 | 1.499 | 1.34
x1 = 0.8592 | 1.581 | 1.411
x1 = 0.9215 | 1.65 | 1.473

ClCCl + ClC(Cl)(Cl)Cl
Details | viscosity [mPa·s]
303.15 K, 101.3 kPa, x2 = 0.506 | 0.5396
